The results in this text go back to patent US10183950B2, “Thienopyrimidine inhibitors of atypical protein kinase C” (Cancer Research Technology Limited, priority 2011, dated 2019).

The target of the test is T1, kinase-domain human PKCι (Homo sapiens, UniProt P41743).
T1 construct: Recombinant, kinase-domain human PKCι is expressed and purified in-house; made in house
T1 sequence (P41743 254-522 limits assumed): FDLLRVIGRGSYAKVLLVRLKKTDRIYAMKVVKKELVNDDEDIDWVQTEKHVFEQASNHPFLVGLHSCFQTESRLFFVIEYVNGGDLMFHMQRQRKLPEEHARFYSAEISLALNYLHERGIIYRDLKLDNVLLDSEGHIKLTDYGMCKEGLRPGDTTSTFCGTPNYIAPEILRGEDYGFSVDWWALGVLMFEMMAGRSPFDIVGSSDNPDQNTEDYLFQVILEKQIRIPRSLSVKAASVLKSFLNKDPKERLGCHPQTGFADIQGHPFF
In words: PKCι IC50 IMAP fluorescence polarisation assay, kinase-domain enzyme. Conditions: kinase domain PKCi at 2 μM ATP; read-out: IC50 in IMAP assay against kinase domain PKCi. In kind it is biochemical. Background: In fluorescence polarisation assays a small probe gives low polarisation when free and higher when bound to something large.
Take `c1cnc2sc3c(N4CCNCC4)nc(-c4ccncc4)nc3c2c1` [compound 376, 4-Piperazin-1-yl-2-pyridin-4-yl-pyrido[3′,2′:4,5]thieno[3,2-d]pyrimidine]: the IC50 was in the range of 10 to 40 µM.

Regarding `c1cnc2sc3c(N4CCCNCC4)nc(-c4ccncc4)nc3c2c1` [compound 377, 4-[1,4]Diazepan-1-yl-2-pyridin-4-yl-pyrido[3′,2′:4,5]thieno[3,2-d]pyrimidine], the IC50 is 1 to 10 µM. Next, `C[C@H](N)CNc1nc(-c2ccncc2)nc2c1sc1ncccc12` [compound 378, (S)-N*1*-(2-Pyridin-4-yl-pyrido[3′,2′:4,5]thieno[3,2-d]pyrimidin-4-yl)-propane-1,2-diamine]: 1 to 10 µM; `C[C@@H](N)CNc1nc(-c2ccncc2)nc2c1sc1ncccc12` [compound 379, (R)-N*1*-(2-Pyridin-4-yl-pyrido[3′,2′:4,5]thieno[3,2-d]pyrimidin-4-yl)-propane-1,2-diamine]: 10 to 40 µM; `Cc1cc(C)c2c(n1)sc1c(N3CCNCC3)nc(-c3ccncc3)nc12` [compound 380, 7,9-Dimethyl-4-piperazin-1-yl-2-pyridin-4-yl-pyrido[3′,2′:4,5]thieno[3,2-d]pyrimidine]: 1 to 10 µM. With `Cc1cc(C)c2c(n1)sc1c(N3CCCNCC3)nc(-c3ccncc3)nc12` [compound 381, 4-[1,4]Diazepan-1-yl-7,9-dimethyl-2-pyridin-4-yl-pyrido[3′,2′:4,5]thieno[3,2-d]pyrimidine] the figure was 1 to 10 µM; with `Cc1cc(C)c2c(n1)sc1c(NC[C@H](C)N)nc(-c3ccncc3)nc12` [compound 382, (S)-N*1*-(7,9-Dimethyl-2-pyridin-4-yl-pyrido[3′,2′:4,5]thieno[3,2-d]pyrimidin-4-yl)-propane-1,2-diamine], 0.1 to 1 µM; with `Cc1cc(C)c2c(n1)sc1c(NC[C@@H](C)N)nc(-c3ccncc3)nc12` [compound 383, (R)-N*1*-(7,9-Dimethyl-2-pyridin-4-yl-pyrido[3′,2′:4,5]thieno[3,2-d]pyrimidin-4-yl)-propane-1,2-diamine], 1 to 10 µM. For the molecule `Clc1cccc2sc3c(N[C@@H]4CCNC4)nc(-c4ccncc4)nc3c12` [compound 384, (9-Chloro-2-pyridin-4-yl-benzo[4,5]thieno[3,2-d]pyrimidin-4-yl)-(R)-pyrrolidin-3-yl-amine], the concentration for half-maximal inhibition (IC50) was in the range of 1 to 10 µM. On to `CN(CCN)c1nc(-c2ccncc2)nc2c1sc1cccc(Cl)c12` [compound 385, N*1*-(9-Chloro-2-pyridin-4-yl-benzo[4,5]thieno[3,2-d]pyrimidin-4-yl)-N*1*- methyl-ethane-1,2-diamine], for which the 50% inhibitory concentration (IC50) was 1 to 10 µM. For `NCCNc1nc(-c2ccncc2)nc2c1sc1cccc(Cl)c12` [compound 386, N*1*-(9-Chloro-2-pyridin-4-yl-benzo[4,5]thieno[3,2-d]pyrimidin-4-yl)-ethane-1,2-diamine], the IC50 lay in the range of 0.1 to 1 µM. Next, `Clc1cccc2sc3c(N4CCNCC4)nc(-c4ccncc4)nc3c12` [compound 387, 9-Chloro-4-piperazin-1-yl-2-pyridin-4-yl-benzo[4,5]thieno[3,2-d]pyrimidine]: 0.1 to 1 µM; `Cc1csc2c(OC[C@H]3CCCN3)nc(-c3ccncc3)nc12` [compound 476, 7-methyl-2-pyridin-4-yl-4-((R)-1-pyrrolidin-2-ylmethoxy)-thieno[3,2-d]pyrimidine]: 10 to 40 µM. Next, `N[C@@H](COc1nc(-c2ccncc2)nc2c1sc1cccc(Cl)c12)Cc1ccccc1` [compound 477, (R)-1-(9-Chloro-2-pyridin-4-yl-benzo[4,5]thieno[3,2-d]pyrimidin-4-yloxymethyl)-2-phenyl-ethylamine]: 10 to 40 µM; `Clc1cccc2sc3c(OC[C@H]4CCCN4)nc(-c4ccncc4)nc3c12` [compound 478, 9-Chloro-2-pyridin-4-yl-4-((R)-1-pyrrolidin-2-ylmethoxy)-benzo[4,5]thieno[3,2-d]pyrimidine]: 10 to 40 µM; `Clc1cccc2sc3c(OC[C@@H]4CCCN4)nc(-c4ccncc4)nc3c12` [compound 479, 9-Chloro-2-pyridin-4-yl-4-((S)-1-pyrrolidin-2-ylmethoxy)-benzo[4,5]thieno[3,2-d]pyrimidine]: 1 to 10 µM.

For the molecule `Cc1csc2c(OC[C@@H]3CCCN3)nc(-c3ccncc3)nc12` [compound 480, 7-Methyl-2-pyridin-4-yl-4-((S)-1-pyrrolidin-2-ylmethoxy)-thieno[3,2-d]pyrimidine], the IC50 was in the range of 10 to 40 µM. As to `Cc1csc2c(OC[C@@H](N)Cc3ccccc3)nc(-c3ccncc3)nc12` [compound 481, (S)-1-(7-Methyl-2-pyridin-4-yl-thieno[3,2-d]pyrimidin-4-yloxymethyl)-2-phenyl-ethylamine], the IC50 fell in the range of 10 to 40 µM.

Turning to `Cc1csc2c(OC[C@H](N)Cc3ccccc3)nc(-c3ccncc3)nc12` [compound 482, (R)-1-(7-Methyl-2-pyridin-4-yl-thieno[3,2-d]pyrimidin-4-yloxymethyl)-2-phenyl-ethylamine], the 50% inhibitory concentration (IC50) was 10 to 40 µM. With `Cc1csc2c(O[C@H]3CCNC3)nc(-c3ccncc3)nc12` [compound 483, 7-Methyl-2-pyridin-4-yl-4-((S)-pyrrolidin-3-yloxy)-thieno[3,2-d]pyrimidine] the figure was 10 to 40 µM; with `Cc1csc2c(O[C@@H]3CCNC3)nc(-c3ccncc3)nc12` [compound 484, 7-Methyl-2-pyridin-4-yl-4-((R)-pyrrolidin-3-yloxy)-thieno[3,2-d]pyrimidine], 1 to 10 µM.

For orientation: IC50 means the concentration that inhibits the measured activity by half.
